Laboratory results from patent US20140005165A1, “SUBSTITUTED 3-AZABICYCLO[3.1.0]HEXANE DERIVATIVES USEFUL AS CCR2 ANTAGONISTS” (priority 2011, published 2014).

The compounds below were run against T1, human CCR2 (Homo sapiens, UniProt P41597) (assay: CCR2 Membrane Binding Assay (SPA radio-ligand binding, 125I-rhMCP-1)). Details: membranes from Ba/F3 cells transfected with human CCR2; 0.03 nM 125I-rhMCP-1; 4 h room temperature.
T1 construct: expressed in transfected cells; host or cells: Ba/F3 cells (membrane preparation)
T1 sequence (P41597 whole entry): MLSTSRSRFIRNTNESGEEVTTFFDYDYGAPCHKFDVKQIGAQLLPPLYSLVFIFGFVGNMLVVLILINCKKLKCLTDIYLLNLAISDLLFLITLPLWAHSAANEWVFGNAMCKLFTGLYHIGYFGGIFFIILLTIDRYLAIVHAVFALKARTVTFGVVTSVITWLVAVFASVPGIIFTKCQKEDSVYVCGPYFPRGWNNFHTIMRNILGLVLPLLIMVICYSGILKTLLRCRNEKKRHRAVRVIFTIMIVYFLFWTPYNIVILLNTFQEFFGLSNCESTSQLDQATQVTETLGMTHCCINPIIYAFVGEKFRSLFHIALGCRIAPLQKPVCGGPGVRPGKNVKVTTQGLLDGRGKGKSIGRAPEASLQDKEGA
Description: The radio-ligand binding assay was done using scintillation proximity assay (SPA) technology. Briefly, membranes (1 μg per assay point) from Ba/F3 cells transfected with human CCR2, and wheat germ agglutinin-coated SPA beads (80 μg per point; Amersham, Arlington Heights, Ill.), were pre-incubated for 30 min at room temperature in CCR2 buffer (50 mM HEPES (pH=7.4), 10 mM MgCl2, 10 mM NaCl, 1 mM CaCL2, 0.1% BSA, 10 μg/ml Saponin). At this point pre-bound SPA bead, membrane complex was incubated at room temperature for 4 h with varying concentrations of punitive CCR2 antagonists (in 1% DMSO, final) and 0.03 nM ^125I-rhMCP-1 in CCR2Buffer (S.A. 2200 Ci/mmol, PerkinElmer Life and Analytical Science, Boston, Mass.; NEX332). Binding competition was measured using a 1450 Microbeta Trilux counter (Wallac, Gaithersburg, Md.). Binding constants (IC50 and slope) were calculated using GraphPad Prism software (GraphPad Software, Inc., La Jolla Calif.).

IC50 [nM]	Structure (SMILES)
4	COc1ccc([C@H]2CC[C@@H](N3C[C@@H]4[C@H](C3)[C@H]4C(=O)NCC(=O)Nc3cccc(C(F)(F)F)c3)CC2)cc1 [Compound 130]
3.4	COc1ccc([C@H]2CC[C@@H](N3C[C@@H]4[C@H](C3)[C@H]4C(=O)NCC(=O)Nc3cccc(C(F)(F)F)c3)CC2)cn1 [Compound 132]
4.1	O=C(CNC(=O)[C@H]1[C@@H]2CN([C@H]3CC[C@@H](c4ccc5c(c4)OCO5)CC3)C[C@@H]21)Nc1cccc(C(F)(F)F)c1 [Compound 143]
4.5	COc1ccc(C2(O)CCC(N3C[C@@H]4[C@H](C3)[C@H]4C(=O)NCC(=O)Nc3cccc(C(F)(F)F)c3)CC2)cn1 (stereo partly drawn) [Compound 147]
6.7	Cn1ncc2cc([C@H]3CC[C@@H](N4C[C@@H]5[C@H](C4)[C@H]5C(=O)NCC(=O)Nc4cccc(C(F)(F)F)c4)CC3)ccc21 [Compound 150]
10	O=C(CNC(=O)[C@H]1[C@@H]2CN(C3CCC(O)(c4ccc5c(c4)OCO5)CC3)C[C@@H]21)Nc1cccc(C(F)(F)F)c1 (stereo partly drawn) [Compound 152]
4.5	COc1ncc([C@H]2CC[C@@H](N3C[C@@H]4[C@H](C3)[C@H]4C(=O)NCC(=O)Nc3cccc(C(F)(F)F)c3)CC2)c(OC)n1 [Compound 153]
8.3	O=C(CNC(=O)[C@H]1[C@@H]2CN([C@H]3CC[C@@H](NC(=O)OCc4ccccc4)CC3)C[C@@H]21)Nc1cccc(C(F)(F)F)c1 [Compound 154]
7.4	O=C(CNC(=O)[C@H]1[C@@H]2CN([C@H]3CC[C@@H](c4ccc(-c5ccccc5)cc4)CC3)C[C@@H]21)Nc1cccc(C(F)(F)F)c1 [Compound 156]

Same assay, conditions: membranes from Ba/F3 cells transfected with human CCR2; 0.03 nM 125I-rhMCP-1; class symbols

IC50 [nM]	Structure (SMILES)	IC50 (nM)
51 to 200	O=C(CNC(=O)[C@H]1[C@@H]2CN(C3CCC(O)(c4nccs4)CC3)C[C@@H]21)Nc1cccc(C(F)(F)F)c1 (stereo partly drawn) [Compound 122]	–
201 to 700	O=C(CNC(=O)[C@H]1[C@@H]2CN(C3CCC(O)(c4cncs4)CC3)C[C@@H]21)Nc1cccc(C(F)(F)F)c1 (stereo partly drawn) [Compound 123]	–
201 to 700	CC(C)(C)OC(=O)[C@H]1CC[C@@H](N2C[C@@H]3[C@H](C2)[C@H]3C(=O)NCC(=O)Nc2cccc(C(F)(F)F)c2)CC1 [Compound 124]	–
201 to 700	Cc1[nH]c2c(C(F)(F)F)cccc2c1CCNC(=O)[C@H]1[C@@H]2CN([C@H]3CC[C@@H](c4ccccc4)CC3)C[C@@H]21 [Compound 125]	–
< 50	N#Cc1ccc([C@H]2CC[C@@H](N3C[C@@H]4[C@H](C3)[C@H]4C(=O)NCC(=O)Nc3cccc(C(F)(F)F)c3)CC2)cc1 [Compound 126]	–
–	O=C([C@H]1[C@@H]2CN([C@H]3CC[C@@H](c4ccccc4)CC3)C[C@@H]21)N1CCN(c2cccc(C(F)(F)F)c2)C(=O)C1 [Compound 127]	D (compounds with IC50 values between 701 nM and 110 nM are designated as D class compounds)
201 to 700	O=C([C@H]1[C@@H]2CN([C@H]3CC[C@@H](c4ccccc4)CC3)C[C@@H]21)N1CCC(Nc2nccc(C(F)(F)F)n2)CC1 [Compound 128]	–
201 to 700	CN(C(=O)[C@H]1[C@@H]2CN([C@H]3CC[C@@H](c4ccccc4)CC3)C[C@@H]21)[C@H]1CCN(c2ncc(C(F)(F)F)cn2)C1 [Compound 129]	–
–	COc1ccc([C@H]2CC[C@H](N3C[C@@H]4[C@H](C3)[C@H]4C(=O)NCC(=O)Nc3cccc(C(F)(F)F)c3)CC2)cc1 [Compound 131]	D (compounds with IC50 values between 701 nM and 110 nM are designated as D class compounds)
< 50	COc1ncc([C@H]2CC[C@@H](N3C[C@@H]4[C@H](C3)[C@H]4C(=O)NCC(=O)Nc3cccc(C(F)(F)F)c3)CC2)cn1 [Compound 133]	–
51 to 200	O=C(CNC(=O)[C@H]1[C@@H]2CN([C@H]3CC[C@@H](c4cnc(O)nc4O)CC3)C[C@@H]21)Nc1cccc(C(F)(F)F)c1 [Compound 134]	–
201 to 700	O=C(NCCc1cc(C(F)(F)F)cc(C(F)(F)F)c1)[C@H]1[C@@H]2CN([C@H]3CC[C@@H](c4ccccc4)CC3)C[C@@H]21 [Compound 135]	–
51 to 200	CC(C)(C)OC(=O)N[C@H]1CC[C@@H](N2C[C@@H]3[C@H](C2)[C@H]3C(=O)NCC(=O)Nc2cccc(C(F)(F)F)c2)CC1 [Compound 136]	–
201 to 700	O=C(CNC(=O)[C@H]1[C@@H]2CN(C3CC=C(c4ccc5c(c4)OCO5)CC3)C[C@@H]21)Nc1cccc(C(F)(F)F)c1 (stereo partly drawn) [Compound 139]	–
201 to 700	O=C(CNC(=O)[C@H]1[C@@H]2CN([C@H]3CC[C@@H](C4Cc5ccccc5O4)CC3)C[C@@H]21)Nc1cccc(C(F)(F)F)c1 (stereo partly drawn) [Compound 140]	–
< 50	O=C(CNC(=O)[C@H]1[C@@H]2CN([C@H]3CC[C@@H](NC(=O)c4ccccc4)CC3)C[C@@H]21)Nc1cccc(C(F)(F)F)c1 [Compound 141]	–
–	O=C(CNC(=O)[C@H]1[C@@H]2CN([C@H]3CC[C@@H](NS(=O)(=O)C4CC4)CC3)C[C@@H]21)Nc1cccc(C(F)(F)F)c1 [Compound 142]	D (compounds with IC50 values between 701 nM and 110 nM are designated as D class compounds)
51 to 200	COc1ccc(CC2CCCC(N3C[C@@H]4[C@H](C3)[C@H]4C(=O)NCC(=O)Nc3cccc(C(F)(F)F)c3)C2)cc1 (stereo partly drawn) [Compound 144]	–
51 to 200	COc1ccc(C[C@H]2CC[C@@H](N3C[C@@H]4[C@H](C3)[C@H]4C(=O)NCC(=O)Nc3cccc(C(F)(F)F)c3)CC2)cc1 [Compound 145]	–
201 to 700	COc1ccc(CC2CCCC(N3C[C@@H]4[C@H](C3)[C@H]4C(=O)NCC(=O)Nc3cccc(C(F)(F)F)c3)C2)cc1 (stereo partly drawn) [Compound 146]	–
< 50	O=C(CNC(=O)[C@H]1[C@@H]2CN([C@H]3CC[C@@H](Nc4ccc(F)c(F)c4)CC3)C[C@@H]21)Nc1cccc(C(F)(F)F)c1 [Compound 148]	–
201 to 700	O=C(CNC(=O)[C@H]1[C@@H]2CN([C@H]3CC[C@H](Nc4ccc(F)c(F)c4)CC3)C[C@@H]21)Nc1cccc(C(F)(F)F)c1 [Compound 149]	–
51 to 200	Cn1ncc2cc([C@H]3CC[C@H](N4C[C@@H]5[C@H](C4)[C@H]5C(=O)NCC(=O)Nc4cccc(C(F)(F)F)c4)CC3)ccc21 [Compound 151]	–
201 to 700	O=C(CNC(=O)[C@H]1[C@@H]2CN([C@H]3CC[C@H](NC(=O)OCc4ccccc4)CC3)C[C@@H]21)Nc1cccc(C(F)(F)F)c1 [Compound 155]	–
< 50	O=C(CNC(=O)[C@H]1[C@@H]2CN([C@H]3CC[C@@H](c4cnn(Cc5ccccc5)c4)CC3)C[C@@H]21)Nc1cccc(C(F)(F)F)c1 [Compound 157]	–
–	O=C(CNC(=O)[C@H]1[C@@H]2CN(CC3CC3)C[C@@H]21)Nc1cccc(C(F)(F)F)c1 [Compound 158]	D (compounds with IC50 values between 701 nM and 110 nM are designated as D class compounds)
< 50	O=C(CNC(=O)[C@H]1[C@@H]2CN([C@H]3CC[C@@H](c4ccc(OCc5ccccc5)cc4)CC3)C[C@@H]21)Nc1cccc(C(F)(F)F)c1 [Compound 160]	–
201 to 700	O=C(CNC(=O)[C@H]1[C@@H]2CN([C@H]3CC[C@H](c4ccc(OCc5ccccc5)cc4)CC3)C[C@@H]21)Nc1cccc(C(F)(F)F)c1 [Compound 161]	–
201 to 700	O=C(NCCc1cccc(C(F)(F)F)c1)C1[C@H]2CN(C3CCCOC3)C[C@@H]12 (stereo partly drawn) [Compound 162]	–
< 50	O=C(CNC(=O)[C@H]1[C@@H]2CN([C@H]3CC[C@@H](c4cc(Br)c(O)c(Br)c4)CC3)C[C@@H]21)Nc1cccc(C(F)(F)F)c1 [Compound 163]	–
